Patent US6355799B1, “Substituted benzene compounds, process for their preparation, and herbicidal and defoliant compositions containing them” (ISK Americas Incorporated, priority 1997, dated 2002)

Assays:
Format in all cases: in vivo
[1] = test system: redroot pigweed (Amaranthus retroflexus, AMARE); assay: Pre-emerge test, greenhouse herbicide activity screening; details: pre-emerge, 14 days after application, rating scale 0-100
In short: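 Plants grown in 10 cm pots of sandy loam mix received acetone-dissolved compounds through a moving flat-fan nozzle. Doses ranged from 15 to 1000 g ai/ha. Pre-emerge pots were seeded one day earlier, post-emerge pots 8–21 days earlier. Fourteen days on, each pot was graded 0–100 for damage.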

[2] = test system: barnyardgrass (Echinochloa crus-galli, ECHCG); assay: as above; details: pre-emerge, 14 days after application, rating scale 0-100
In short: (§1)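 Applied at 15–1000 g ai/ha from acetone in 187 l/ha spray volume. Post-emergence applications included 0.25% v/v non-ionic surfactant and reached plants sown 8–21 days before. Pre-emergence applications were incorporated by surface watering. Efficacy or crop damage was rated on a 0–100 scale after 14 days.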

[3] = test system: green foxtail (Setaria viridis, SETVI); assay: as above; details: pre-emerge, 14 days after application, rating scale 0-100
In short: as §1

[4] = test system: ivyleaf morningglory (Ipomoea hederacea, IPOHE); assay: as above; details: pre-emerge, 14 days after application, rating scale 0-100
In short: as §1

[5] = test system: johnsongrass (Sorghum halepense, SORHA); assay: as above; details: pre-emerge, 14 days after application, rating scale 0-100
In short: as §1

[6] = test system: lambsquarters (Chenopodium album, CHEAL); assay: as above; details: pre-emerge, 14 days after application, rating scale 0-100
In short: as §1

[7] = test system: large crabgrass (Digitaria sanguinalis, DIGSA); assay: as above; details: pre-emerge, 14 days after application, rating scale 0-100
In short: as §1

[8] = test system: sicklepod (Cassia obtusifolia, CASOB); assay: as above; details: pre-emerge, 14 days after application, rating scale 0-100
In short: as §1

[9] = test system: velvetleaf (Abutilon theophrasti, ABUTH); assay: as above; details: pre-emerge, 14 days after application, rating scale 0-100
In short: as §1

[10] = test system: field corn (Zea mays L., var. Dekalb 535, CORN); assay: Pre-emerge test, crop safety; details: pre-emerge, 14 days after application, rating scale 0-100
In short: as §1

[11] = test system: upland rice (Oryza sp., var. Tebonnet, RICE); assay: Pre-emerge test, crop safety; details: pre-emerge, 14 days after application, rating scale 0-100
In short: as §1

[12] = test system: barnyardgrass (Echinochloa crus-galli, ECHCG); assay: Post-emerge test, greenhouse herbicide activity screening; details: post-emerge, 14 days after application, rating scale 0-100
In short: (§2)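 Compounds in acetone were track-sprayed at 15–1000 g ai/ha: pre-emergence onto soil sown the previous day, then top-watered to incorporate and later bottom-watered; post-emergence onto 2–3 leaf plants with 0.25% v/v surfactant, bottom-watered only. Ratings on a 0–100 phytotoxicity scale were taken at day 14.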

[13] = test system: green foxtail (Setaria viridis, SETVI); assay: as above; details: post-emerge, 14 days after application, rating scale 0-100
In short: as §2

[14] = test system: ivyleaf morningglory (Ipomoea hederacea, IPOHE); assay: as above; details: post-emerge, 14 days after application, rating scale 0-100
In short: as §2

[15] = test system: johnsongrass (Sorghum halepense, SORHA); assay: as above; details: post-emerge, 14 days after application, rating scale 0-100
In short: as §2

[16] = test system: lambsquarters (Chenopodium album, CHEAL); assay: as above; details: post-emerge, 14 days after application, rating scale 0-100
In short: as §2

[17] = test system: large crabgrass (Digitaria sanguinalis, DIGSA); assay: as above; details: post-emerge, 14 days after application, rating scale 0-100
In short: as §2

[18] = test system: redroot pigweed (Amaranthus retroflexus, AMARE); assay: as above; details: post-emerge, 14 days after application
In short: as §2

[19] = test system: sicklepod (Cassia obtusifolia, CASOB); assay: as above; details: post-emerge, 14 days after application, rating scale 0-100
In short: as §2

[20] = test system: velvetleaf (Abutilon theophrasti, ABUTH); assay: as above; details: post-emerge, 14 days after application, rating scale 0-100
In short: as §2

[21] = test system: field corn (Zea mays L., var. Dekalb 535, CORN); assay: Post-emerge test, crop safety; details: post-emerge, 14 days after application, rating scale 0-100
In short: as §1

[22] = test system: upland rice (Oryza sp., var. Tebonnet, RICE); assay: Post-emerge test, crop safety; details: post-emerge, 14 days after application, rating scale 0-100
In short: as §1

For `COc1c(Cl)cc(F)c(-n2c(=O)cc(C(F)(F)F)n(C)c2=O)c1NN=C(C(F)(F)F)C(F)(F)F` [15-21], the “phytotoxicity rating AMARE” value ([1]; 63 g ai/ha) was 100, the “phytotoxicity rating AMARE” value ([1]; 250 g ai/ha) was 100 and the “phytotoxicity rating ECHCG” value ([2]; 63 g ai/ha) was 99. For the same compound, the “phytotoxicity rating ECHCG” value ([2]; 250 g ai/ha) was 100, the “phytotoxicity rating SETVI” value ([3]; 63 g ai/ha) was 100 and the “phytotoxicity rating SETVI” value ([3]; 250 g ai/ha) was 100. The “phytotoxicity rating IPOHE” value ([4]; 63 g ai/ha) was 100, the “phytotoxicity rating IPOHE” value ([4]; 250 g ai/ha) was 100 and the “phytotoxicity rating SORHA” value ([5]; 63 g ai/ha) was 100. The “phytotoxicity rating SORHA” value ([5]; 250 g ai/ha) was 100, the “phytotoxicity rating CHEAL” value ([6]; 63 g ai/ha) was 100 and the “phytotoxicity rating CHEAL” value ([6]; 250 g ai/ha) was 100. The “phytotoxicity rating DIGSA” value ([7]; 63 g ai/ha) was 100, the “phytotoxicity rating DIGSA” value ([7]; 250 g ai/ha) was 100 and the “phytotoxicity rating CASOB” value ([8]; 63 g ai/ha) was 100. For the same compound, the “phytotoxicity rating CASOB” value ([8]; 250 g ai/ha) was 100, the “phytotoxicity rating ABUTH” value ([9]; 63 g ai/ha) was 100 and the “phytotoxicity rating ABUTH” value ([9]; 250 g ai/ha) was 100. The “phytotoxicity rating CORN” value ([10]; 63 g ai/ha) was 95, the “phytotoxicity rating CORN” value ([10]; 250 g ai/ha) was 100 and the “phytotoxicity rating RICE” value ([11]; 63 g ai/ha) was 99. For the same compound, the “phytotoxicity rating RICE” value ([11]; 250 g ai/ha) was 100, the “Post-emerge Herbicidal Activity ECHCG (phytotoxicity rating)” value ([12]; 63 g ai/ha) was 60 and the “Post-emerge Herbicidal Activity ECHCG (phytotoxicity rating)” value ([12]; 250 g ai/ha) was 100. For the same compound, the “Post-emerge Herbicidal Activity SETVI (phytotoxicity rating)” value ([13]; 63 g ai/ha) was 50, the “Post-emerge Herbicidal Activity SETVI (phytotoxicity rating)” value ([13]; 250 g ai/ha) was 90 and the “Post-emerge Herbicidal Activity IPOHE (phytotoxicity rating)” value ([14]; 63 g ai/ha) was 100. The “Post-emerge Herbicidal Activity IPOHE (phytotoxicity rating)” value ([14]; 250 g ai/ha) was 100, the “Post-emerge Herbicidal Activity SORHA (phytotoxicity rating)” value ([15]; 63 g ai/ha) was 40 and the “Post-emerge Herbicidal Activity SORHA (phytotoxicity rating)” value ([15]; 250 g ai/ha) was 95. For the same compound, the “Post-emerge Herbicidal Activity CHEAL (phytotoxicity rating)” value ([16]; 63 g ai/ha) was 100, the “Post-emerge Herbicidal Activity CHEAL (phytotoxicity rating)” value ([16]; 250 g ai/ha) was 100 and the “Post-emerge Herbicidal Activity DIGSA (phytotoxicity rating)” value ([17]; 63 g ai/ha) was 30. For the same compound, the “Post-emerge Herbicidal Activity DIGSA (phytotoxicity rating)” value ([17]; 250 g ai/ha) was 95, the “Post-emerge Herbicidal Activity AMARE (phytotoxicity rating)” value ([18]; 63 g ai/ha, rating scale 0-100 (0 no damage, 100 complete death)) was 95 and the “Post-emerge Herbicidal Activity AMARE (phytotoxicity rating)” value ([18]; 250 g ai/ha, rating scale 0-100) was 100. For the same compound, the “Post-emerge Herbicidal Activity CASOB (phytotoxicity rating)” value ([19]; 63 g ai/ha) was 100, the “Post-emerge Herbicidal Activity CASOB (phytotoxicity rating)” value ([19]; 250 g ai/ha) was 100 and the “Post-emerge Herbicidal Activity ABUTH (phytotoxicity rating)” value ([20]; 63 g ai/ha) was 100. For the same compound, the “Post-emerge Herbicidal Activity ABUTH (phytotoxicity rating)” value ([20]; 250 g ai/ha) was 100, the “Post-emerge Herbicidal Activity CORN (crop damage rating)” value ([21]; 63 g ai/ha) was 30 and the “Post-emerge Herbicidal Activity CORN (crop damage rating)” value ([21]; 250 g ai/ha) was 90. For the same compound, the “Post-emerge Herbicidal Activity RICE (crop damage rating)” value ([22]; 63 g ai/ha) was 80 and the “Post-emerge Herbicidal Activity RICE (crop damage rating)” value ([22]; 250 g ai/ha) was 90.
